{
  "source": "patent US9532997B2",
  "about": "“Compositions and methods for promoting intestinal stem cell function” (Whitehead Institute for Biomedical Research, priority 2012, dated 2017)",
  "key": {"[1]": {"test_system": "cleaved caspase 3", "experiment": "Enterocyte apoptosis, cleaved caspase 3 immunostain", "type": "in vivo, mice", "settings": "n=3 per group, FIG. 7", "procedure": "(§1) Tissues were fixed in 10% formalin, paraffin embedded, and sectioned. Antigen retrieval was performed with Borg Decloaker RTU solution (Biocare Medical) in a pressurized Decloaking Chamber (Biocare Medical) for 3 minutes. Antibodies: rat anti-BrdU (1:2000; Abeam 6326), rabbit phospho-S6 Ser235/236 (1:500, CST 4858), rabbit cleaved caspase 3 (1:500; CST 9664), rabbit chromogranin A (1:3000, Abeam 15160), rabbit Lysozyme (1:2000; Thermo), rabbit Bst-1 (1:1000, Abeam 74301) and mouse Bst-1 (1:100 to 500, BD Pharmingen). For mouse Bst-1, the M.O.M (mouse on mouse) kit was used according to the manufacturer's instructions (Vector labs PK-2200). Biotin conjugated secondary donkey anti-rabbit or rat antibodies were used from Jackson ImmunoResearch. The Vectastain Elite ABC immunoperoxidase detection kit (Vector Labs PK-6101) followed by Dako Liquid DAB+ Substrate (Dako) was used for visualization. For immunofluorescence Alexa Fluor 568 secondary antibodies (Invitrogen) were used. All antibody incubations were performed with Common Antibody Diluent (Biogenex)."}, "[2]": {"test_system": "Paneth cells", "experiment": "Paneth cell numbers in small intestine after 10 Gy ionizing radiation (histology)", "type": "in vivo, mice", "settings": "for number of Paneth cells vs irradiated control, pre- and post-treatment: 4 mg/kg IP daily 1 week, 10 Gy gamma rays, then intermittent rapamycin two weeks, FIG. 14c; for number of Paneth cells vs irradiated control, post-treatment only: 10 Gy followed by intermittent rapamycin over two weeks, FIG. 14b", "procedure": "Paneth cells are essential to the survival of Lgr5+ intestinal stem cells. […] The clonogenicity of ISCs is enhanced by co-culturing of these cells with Paneth cells from mice treated with caloric restriction or rapamycin (FIG. 13a). […] Mice were also treated with 10 Gy of radiation followed by intermittent treatment with rapamycin over the two weeks. […] Accordingly, rapamycin and derivatives or analogs or other agents thereof which inhibit mTOR, and/or and caloric restriction can be employed as agents for increasing the number and function of intestinal stem cells and Paneth cells, and as radioprotective agents against the acute and late toxicities of deliberate and accidental exposure to ionizing radiation."}, "[3]": {"test_system": "intestinal crypts", "experiment": "Organoid formation (clonogenicity) of intestinal crypts isolated from treated mice", "type": "in vivo", "source_text": "Mice were housed in the Unit for Laboratory Animal Medicine at the Whitehead Institute for Biomedical Research. Lgr5-EGFP-IRES-CreERT2 mice (Strain name: B6.129P2-Lgr5tm1(cre/ERT2)Cle/J, Stock Number: 008875) were purchased from Jackson Laboratories. UbiquitinC-CreERT2 mice were obtained from the Jackson Laboratory (Strain Name: B6; 129S-Tg(UBC-cre/ERT2)1Ejb/J, Stock Number: 007001). Rictor floxed mice were generated as described in^27 and backcrossed to C57BL/6 for at least 6 generations. TSC1^loxp/loxp mice were the generous gift of D. Kwiatkowski (Harvard Medical School) and backcrossed to C57BL/6 for at least 6 generations. Rosa26-CreERT2 mice (Rosa26 or R26) were obtained from the Jackson Laboratory (Strain 15 Name: B6.129-Gt(ROSA)26Sor^iml(cre/ERT2)Tyj/J, Stock Number 008463). CR was achieved by providing individual or paired mice a daily portion of a chow diet fortified with vitamins and minerals amounting to 60% of the daily food intake of their ad libitum counterparts^20. All adult mice used in CR experiments were between the ages of 10 to 24 weeks and were sacrificed prior to their daily feeding. Rictor or TSC1 was excised by treatment with tamoxifen suspended in corn or sunflower seed oil (Spectrum) at a concentration of 10 mg/mL, and 200 μl per 25 g of body weight was injected intraperitoneally into mice once daily for 5-7 days. […] Mice were allowed to recover for at least 7 days after the last tamoxifen injection prior to any experiments. In vivo fate mapping in Lgr5-EGFP-IRES-reERT2; Rosa26loxpstoploxp-LacZ compound mice was done with a single injection of tamoxifen given at 200 μl per 25 g. As described previously^28, Rapamycin (LC Laboratories) was administered by intraperitoneal injection for 7 to 28 consecutive doses at 4 mg/kg. It was reconstituted in absolute ethanol at 10 mg/ml and diluted in 5% Tween-80 (Sigma) and 5% PEG-400 (Hampton Research) before injection. The final volume of all injections was 200 μl. Regular insulin (Lilly) was administered at 0.75 U/kg diluted in PBS 20 minutes prior to sacrificing fasted mice.\nSmall intestines were removed and the fat/mesentery was dissected away. The intestinal lumen was washed with ice cold PBS (Mg—/Ca—) using a 18 G feeding needle (Roboz FN-7905) until the intestines appeared white/pink. They were then opened longitudinally. The mucous was removed by gently rubbing the intestine between fingers in cold PBS. The intestines were cut into 3 to 5 mm fragments and placed into 50 ml conical tubes that were fill with ice cold 30 ml of PBS (Mg—/Ca—)/EDTA (10 mM). The samples were incubated and shook intermittently on ice for 30 minutes continuously discarding and replacing (at least 3 times) the supernatant. […]"}, "[4]": {"test_system": "Bst-1", "experiment": "Bst-1 protein expression by immunoblots of crypts and immunostains of Paneth cells", "type": "in vivo, mice", "settings": "FIG. 4c", "procedure": "as §1\nAntibodies: rabbit anti phospho-T389 S6K1, phospho-S240/244 S6, S6K1, and S6 from CST; rabbit Bst-1 (ab74301) from Abeam; mouse anti_-actin (clone AC-15) from Sigma. […] Proteins extracts were denatured by the addition of sample buffer, boiled for […], resolved by SDS-PAGE, and analyzed by immunoblotting."}},
  "note": "Entries after “also recorded” stand apart in the source; their conditions may differ.",
  "data": [
    {"smiles": "CO[C@H]1C[C@@H]2CC[C@@H](C)[C@@](O)(O2)C(=O)C(=O)N2CCCC[C@H]2C(=O)O[C@H]([C@H](C)C[C@@H]2CC[C@@H](O)[C@H](OC)C2)CC(=O)[C@H](C)/C=C(\\C)[C@@H](O)[C@@H](OC)C(=O)[C@H](C)C[C@H](C)/C=C/C=C/C=C/1C", "note": "[Rapamycin, sirolimus]", "values": [
      {"measurement": "cleaved caspase 3 (enterocyte apoptosis) vs AL controls", "setting": "[1]", "result": "no increase"},
      {"measurement": "number of Paneth cells vs irradiated control, pre- and post-treatment", "setting": "[2]", "result": "increase in the number of morphologically normal Paneth cells"},
      {"measurement": "number of Paneth cells vs irradiated control, pre- and post-treatment", "setting": "[2]; listed as rapamycin", "result": "significantly higher numbers of Paneth cells"},
      {"measurement": "number of Paneth cells vs irradiated control, post-treatment only", "setting": "[2]", "result": "increase in the number of morphologically normal Paneth cells"},
      {"measurement": "number of Paneth cells vs irradiated control, post-treatment only", "setting": "[2]; listed as rapamycin", "result": "significantly higher numbers of Paneth cells"},
      {"measurement": "effect of combination of CR and rapamycin on crypt organoid formation", "setting": "[3]; CR+R treated mice, FIG. 3i", "result": "non-additive"},
      {"measurement": "organoids per intestinal crypt, increase vs vehicle-treated mice", "setting": "[3]; crypts isolated from mice given 4 mg/kg daily, n=3-5, FIG. 3i", "result": "~2", "unit": "fold"},
      {"measurement": "organoid body formation of crypts compared with CR", "setting": "[3]; mice treated for 1 week, FIG. 3i", "result": "as capable of forming organoid bodies as those from mice on CR"},
      {"measurement": "crypt clonogenicity after Rictor deletion (mTORC2 independence)", "setting": "[3]; rapamycin 1 to 3 weeks after Rictor-deletion in Rictorfl/fl UBC-CreERT2 mice vs WT, FIG. 3k", "result": "increased the clonogenicity of crypts irrespective of whether they were isolated from adult intestines expressing or lacking Rictor; also recorded: increased crypt clonogenicity to a similar extent as those isolated from rapamycin treated wild-type (WT) mice"},
      {"measurement": "Bst-1 protein expression", "setting": "[4]; crypts (immunoblots) and Paneth cells (immunostains) of treated mice, d", "result": "increased"},
      {"measurement": "SDS-PAGE mobility of Bst-1", "setting": "[4]; immunoblots of crypts", "result": "affected the SDS-PAGE mobility of Bst-1"}
    ]}
  ]
}
